ED50 and MIC values data for 1 molecule are collected here from patent US5137892A, “Quinoline, naphthyridine and pyridobenzoxazine derivatives” (Abbott Laboratories, priority 1990, dated 1992).

Assay [1] has as its system Staphylococcus aureus NCTC 10649. In words: In Vivo Antibacterial Activity, protection of CF-1 female mice from bacterial challenge. The arrangement: species or system CF-1 female mice infected with Staphylococcus aureus. Conditions: 100 times the LD50 i.p., dosed at 1 and 5 hr after infection, mortality on sixth day. The protocol:
The in vivo antibacterial activity of one of the compounds of the present invention was determined by studying the protection of CF-1 female mice from bacterial challenge. The test compound was 7-(2-dimethylaminomethyl-1,4-dioxa-7-azaspiro[4.4]non-7-yl)-6-fluoro-1-(2,4-difluorophenyl)-1,8-naphthyridine-3-carboxylic acid (prepared in Example 445). Aqueous solutions of the compound were made by dissolving it in dilute NaOH and diluting with distilled water to the desired volume.
The median lethal dose of the test organism was then determined as follows: After 18 hours incubation, a culture of Staphylococcus aureus NCTC 10649 was serially diluted by using 10-fold dilutions in 5% (w/v) hog gastric mucin. 0.5 mL samples, of dilution from 10^-1 to 10^-8, were injected intraperitoneally into mice. The LD50 for the test organism was calculated from the cumulative mortalities on the sixth day by the using the Reed and Muench procedure (Reed, L. J., and H. Muench, Amer. J. Hygiene, 27, 493 (1938)).
The 18 hour culture of the test organism was then diluted in 5% (w/v) hog gastric mucin to obtain 100 times the LD50, and 0.5 mL was injected intraperitoneally into mice. The mice were treated subcutaneously or orally with a specific amount of the test compound divided equally to be administered at 1 and 5 hr after infection. […]

Assay [2] concerns Micrococcus luteus ATCC 9341. In words: In Vitro Antibacterial Activity, agar dilution MIC. Type of assay: cell-based. To be noted: M. luteus ATCC 9341; BHI agar dilution, 20-24 hours; unit assumed. As for the experimental part:
(§1) The activity of the compounds of the present invention was tested against a wide variety of bacteria using standard assay procedures. Minimum inhibitory concentrations (MICs) were determined by the agar dilution method, described below, using Brain Heart Infusion agar.
(§2) Twelve petri dishes were prepared, each containing successive aqueous 2-fold dilutions of the test compounds mixed with 10 mL of sterilized Brain Heart Infusion (BHI) agar. Each plate was inoculated with 100-fold (or 10-fold, for slow-growing strains such as Micrococcus and Streptococcus) dilutions of up to 32 different microorganisms using a Steers replicator block calibrated to deliver approximately 10^4 colony forming units (CFUs). The inoculated plates were incubated at about 35°-37° C. for approximately 20-24 hours. In addition, a control plate, using BHI agar containing no test compound, was prepared and incubated at the beginning and at the end of each test. Ciprofloxacin was used as the reference antibiotic.
(§3) The MIC was defined as the lowest concentration of test compound yielding no growth (a slight haze or sparsely isolated colonies at the inoculum spot as compared to the growth control contaning no test compound.

The subject of a further assay is Escherichia coli SS. The assay is described as follows: In Vitro Antibacterial Activity, agar dilution MIC. To be noted: E. coli SS; BHI agar dilution, 20-24 hours; unit assumed. Type of assay: cell-based. As for the experimental part:
as §1, §2, §3
Background: Agar dilution tests growth on a series of plates holding different concentrations.

The test system of assay [3] is Enterococcus faecium ATCC 8043. In words: In Vitro Antibacterial Activity, agar dilution MIC. Type of assay: cell-based. To be noted: E. faecium ATCC 8043; BHI agar dilution, 20-24 hours; unit assumed. The protocol: as §1, §2, §3
Assay [4] deals with Staphylococcus aureus A5177. In words: In Vitro Antibacterial Activity, agar dilution MIC. Type of assay: cell-based. To be noted: S. aureus A5177; BHI agar dilution, 20-24 hours; unit assumed. The protocol:
as §1, §2, §3

The test system of assay [5] is Klebsiella pneumoniae ATCC 8045. The assay is described as follows: In Vitro Antibacterial Activity, agar dilution MIC. Type of assay: cell-based. Conditions: K. pneumoniae ATCC 8045; BHI agar dilution, 20-24 hours; unit assumed. The protocol:
as §1, §2, §3

Assay [6] deals with Staphylococcus aureus 45 RAR2. In words: In Vitro Antibacterial Activity, agar dilution MIC. Conditions: S. aureus 45 RAR2; BHI agar dilution, 20-24 hours; unit assumed. Type of assay: cell-based. As for the experimental part: as §1, §2, §3
For the next assay, the system named is Escherichia coli H560. In words: In Vitro Antibacterial Activity, agar dilution MIC. In kind it is cell-based. Conditions: E. coli H560; BHI agar dilution, 20-24 hours; unit assumed. As for the experimental part: as §1, §2, §3
Assay [7] deals with Streptococcus bovis A5169. The assay is described as follows: In Vitro Antibacterial Activity, agar dilution MIC. In kind it is cell-based. To be noted: S. bovis A5169; BHI agar dilution, 20-24 hours; unit assumed. The protocol:
as §1, §2, §3

The test system of the next assay is Acinetobacter SP CMX 699. In words: In Vitro Antibacterial Activity, agar dilution MIC. In kind it is cell-based. Conditions: BHI agar dilution, 20-24 hours, unit assumed. As for the experimental part: as §1, §2, §3
In assay [8] the test system is Staphylococcus aureus CMX 553. In words: In Vitro Antibacterial Activity, agar dilution MIC. In kind it is cell-based. To be noted: S. aureus CMX 553; BHI agar dilution, 20-24 hours; unit assumed. As for the experimental part: as §1, §2, §3
Assay [9] concerns Streptococcus pyogenes 930 CONST. The assay is described as follows: In Vitro Antibacterial Activity, agar dilution MIC. In kind it is cell-based. To be noted: S. pyogenes 930 CONST; BHI agar dilution, 20-24 hours; unit assumed. The protocol:
as §1, §2, §3

For assay [10], the system named is Staphylococcus aureus NCTC 10649. In words: In Vitro Antibacterial Activity, agar dilution MIC. In kind it is cell-based. To be noted: S. aureus NCTC 10649; BHI agar dilution, 20-24 hours; unit assumed. The protocol:
as §1, §2, §3

For the next assay, the system named is Pseudomonas cepacia 2961. In words: In Vitro Antibacterial Activity, agar dilution MIC. In kind it is cell-based. Conditions: P. cepacia 2961; BHI agar dilution, 20-24 hours; unit assumed. The protocol:
as §1, §2, §3

The next assay relates to Staphylococcus aureus 45. The assay is described as follows: In Vitro Antibacterial Activity, agar dilution MIC. Type of assay: cell-based. To be noted: S. aureus 45; BHI agar dilution, 20-24 hours; unit assumed. The protocol: as §1, §2, §3
Assay [11] concerns Streptococcus agalactaciae CMX 508. The assay is described as follows: In Vitro Antibacterial Activity, agar dilution MIC. Type of assay: cell-based. Conditions: S. agalactaciae CMX 508; BHI agar dilution, 20-24 hours; unit assumed. The protocol:
as §1, §2, §3

Assay [12] concerns Staphylococcus aureus 642A. The assay is described as follows: In Vitro Antibacterial Activity, agar dilution MIC. To be noted: S. aureus 642A; BHI agar dilution, 20-24 hours; unit assumed. Type of assay: cell-based. As for the experimental part:
as §1, §2, §3

Assay [13] has as its system Staphylococcus epidermidis 3519. In words: In Vitro Antibacterial Activity, agar dilution MIC. Conditions: S. epidermidis 3519; BHI agar dilution, 20-24 hours; unit assumed. In kind it is cell-based. The protocol: as §1, §2, §3
Assay [14] relates to Micrococcus luteus ATCC 4698. The assay is described as follows: In Vitro Antibacterial Activity, agar dilution MIC. Type of assay: cell-based. Conditions: M. luteus ATCC 4698; BHI agar dilution, 20-24 hours; unit assumed. As for the experimental part: as §1, §2, §3
Assay [15] relates to Streptococcus pyogenes 2548 INDUC. The assay is described as follows: In Vitro Antibacterial Activity, agar dilution MIC. Conditions: S. pyogenes 2548 INDUC; BHI agar dilution, 20-24 hours; unit assumed. In kind it is cell-based. As for the experimental part:
as §1, §2, §3

The test system of assay [16] is Pseudomonas aeruginosa K799/WT. In words: In Vitro Antibacterial Activity, agar dilution MIC. In kind it is cell-based. To be noted: P. aeruginosa K799/WT; BHI agar dilution, 20-24 hours; unit assumed. As for the experimental part:
as §1, §2, §3

Values after ≈ are worked out from the molar mass of the structure shown. Where two headings read alike, the source gives them in different places.

With `CN(C)CC1COC2(CCN(c3nc4c(cc3F)c(=O)c(C(=O)O)cn4-c3ccc(F)cc3F)C2)O1` (stereo not shown) [Example 445], the ED50 in assay [1] (NCTC10649, 144 h, oral, read-out: oral ED50) is 6 mg/kg; in assay [1] (NCTC10649, sc, 144 h, subcutaneous, read-out: subcutaneous ED50) it was 5 mg/kg. Besides, the MIC values turned out to be 12.5 µg/mL (≈ 24.8 µM) in [2]; 0.2 µg/mL (≈ 0.396 µM) in the assay with Escherichia coli SS; 1.56 µg/mL (≈ 3.09 µM) in assay [3]; 0.39 µg/mL (≈ 0.773 µM) in [4]; 1.56 µg/mL (≈ 3.09 µM) in [5]; 0.78 µg/mL (≈ 1.55 µM) in assay [6]. Besides, the MIC values amounted to 1.56 µg/mL (≈ 3.09 µM) in the assay with Escherichia coli H560; 1.56 µg/mL (≈ 3.09 µM) in [7]; 6.2 µg/mL (≈ 12.3 µM) in the assay with Acinetobacter SP CMX 699; 0.39 µg/mL (≈ 0.773 µM) in [8]; 0.78 µg/mL (≈ 1.55 µM) in assay [9]; 0.2 µg/mL (≈ 0.396 µM) in assay [10]. The MIC values against Pseudomonas cepacia 2961 is 50 µg/mL (≈ 99.1 µM); against Staphylococcus aureus 45, 0.39 µg/mL (≈ 0.773 µM); in assay [11] it was 1.58 µg/mL (≈ 3.13 µM); in assay [12], 0.39 µg/mL (≈ 0.773 µM); in assay [13], 0.39 µg/mL (≈ 0.773 µM); in [14], 12.5 µg/mL (≈ 24.8 µM). The MIC values in assay [15] came out at 0.2 µg/mL (≈ 0.396 µM); in [16], 12.5 µg/mL (≈ 24.8 µM).

The term ED50 denotes the dose at which the effect has come halfway, by size or by number of responders.
